Results on one compound are retold here after PMC4026528 (PLoS ONE, 2014).

Data set [1] has as its system Wnt transcriptional activity (TCF reporter) in U2OS cells. As to the kind of experiment: TCF-Luciferase/TA-Renilla Wnt reporter assay in U2OS. The conditions noted are these: 24 h, concentration dependent. The format is cell-based, human. The text has this: The generation of TCF-Luciferase and TA-Renilla reporter plasmids as well as IC50 determination and calculation was reported previously. Human AXIN1 and WNT3A cDNAs were purchased from Origene as “transfection ready” plasmids. Dominant negative TCF4 cDNA was purchased from Upstate. Luciferase reporter of the nucleolin promoter (pNucL14) and FLAG-c-Myc expressing vector were from B. Amati. Luciferase reporter of the Hes5 promoter and Notch1-IC expressing vector were from I. Screpanti. Lentiviral vectors for inducible dominant negative TCF4 (rLV-EF1-tTS, rLV-EF1-rtTA and rLV-TRE-CMV-HA-TCF4DN) were purchased from Vectalys.
Transfections were carried out using Lipofectamine 2000 (Invitrogen) according to the manufacturer’s instructions. Lentiviral expression of TCF-Luc, TA-Renilla, and the inducible dominant negative TCF4, were carried out following Vectalys instructions. For reporter assays, luciferase activities were performed as described previously.

Data set [2] has as its system Axin1/P-β-catenin co-localization in U2OS cells. As to the kind of experiment: Axin1-GFP / P-β-catenin co-localization (confocal) in U2OS. The format is cell-based, human. The conditions noted are these: Wnt3a-CM, 10 µmol/L overnight.
Protocol: For co-localization experiments, U2OS cells were plated directly on coverslips coated with Fibronectin (Invitrogen). After transfections and incubation treatment of 24 h, cells were washed once with 1X PBS and then fixed with 4% paraformaldehyde for 15 min. After three washes in PBS, cells were permeabilized with 0.1% Triton X-100 for 10 min and washed three times with TBS (Bio-Rad). […] After 24 h, cells were washed three times with TBS and incubated for 1 h with the following secondary antibody Alexa Fluor 546-conjugated goat anti-rabbit IgG (Invitrogen, 1∶1000). Finally, coverslips were mounted onto glass slides using Prolong Gold Antifade reagent with DAPI (Invitrogen). Cells were examined under laser confocal fluorescence microscope with plan-apochromate 40x and 63x/1.4 oil-immersion objective (LSM 510 Meta, Axiovert 200, Zeiss). Co-localization experiments were performed in triplicate, and data/images presented are the average of at least 10 random fields for each independent experiment.
Data set [3] relates to HT-1080 cells. As to the kind of experiment: Tube formation assay, HT-1080. The conditions noted are these: HT-1080, 24 hours exposure, vs DMSO. The format is cell-based, human. The protocol: Soft agar assay and analysis was carried out as previously described. For scratch assay, confluent monolayer of U2OS and HT-1080 cells were subjected to scratch using a sterile pipette tip. Wounded monolayers were washed to remove debris and incubated with SEN461 at different concentrations for 20 hours. After the incubation period, images were taken under an Axiovert 200M (Zeiss) microscope equipped with a CCD camera, and the gap width was measured using MetaMorph 6.3 software (Universal Imaging Corp.) to calculate the area covered by cells (pixels unit). The tube formation assay was performed using growth factor-reduced Matrigel from BD (BD Biosciences; San Jose, CA, USA). Matrigel was thawed overnight at 4°C and was diluted (1∶1) with phenol red-free DMEM without serum. 100 µl of the diluted matrigel was used to coat the wells of a 96 well plate and was allowed to polymerize for 2 hours at 37°C. […] The tube formation was monitored under a phase contrast microscope (Axiovert 200, Zeiss) and imaged using MetaMorph system (Universal Imaging Corp).

Data set [4] deals with HT-1080 xenograft tumor. As to the kind of experiment: HT-1080 xenograft tumor growth. Format: in vivo, female Crl:CD-1 nude mice. The conditions noted are these: 30 mg/kg twice a day PO, seven days. The procedure:
(§1) Female athymic nude mice (6 weeks old, Crl:CD-1 nude mice) were obtained from Charles River Italia (Calco, Italy). HT-1080 cells (6×10^∧6 cells) were resuspended in 200 µl of PBS 1X and injected subcutaneously in the right flank of the mice. Body weight and tumor measurements (using a digital caliper) were performed twice a week. Randomization was performed on day 12 after cell injection by comparing tumor mass and treatments started on day 13 when tumors reached a median size of 246 mm^3 (range = 230–268 mm^3). SEN461 was formulated in 0.5% w/v Methocel in MilliQ water and administered PO by oral gavage twice a day at 30 mg/kg for seven consecutive days in a total of 15 animals (n = 5 for each time point). Control animals (n = 5) were administered with the vehicle for the same time period. On treatment day 19, the mice were euthanized under inhalant anesthesia with isoflurane and tumor and blood samples were collected at three different time points (1–4–8 h, n = 5 animals for each time point) after last treatment and subjected to gene expression analysis and compound quantification. All mice were maintained in a conventional-specific-pathogen-free facility according to the NIH guidelines using an approved Animal Care and Use Committee protocol. […]

Data set [5] in a line: Body weight and intestinal histology of treated mice. Format: in vivo, female Crl:CD-1 nude mice. The conditions noted are these: 30 mg/kg twice a day for seven days. The protocol:
as §1

For the compound `COCC(=O)N1CCN(C(=O)C2CCC(Cn3c(=O)c4cc(OC)ccc4n(C)c3=O)CC2)CC1` (stereo not drawn) [SEN461], the “TCF-dependent reporter activity (TCF-Luciferase/TA-Renilla)” value in data set [1] is listed as “reduced TCF-dependent reporter activity”. In addition, the “phosphorylated β-catenin associated with Axin1 (co-localization)” value in data set [2] is recorded as “increase in the amount of phosphorylated β-catenin associated with Axin1”. Further, in data set [3], the tubule-formation activity entry is listed as “did not produce any change”. The “antitumor activity (tumor growth)” value in data set [4] is “tumor stasis effect”. Also, in data set [5], the body weight result is listed as “maintained their body weight with no significant changes” and the “histology of gastrointestinal tract” value is given as “absence of gross histological changes”.
